Test results as given in patent US20030147850A1 (priority 2002, published 2003).

System: vesicular stomatitis virus (VSV)
Type: cell-based

Disodium succinate hexahydrate
CPE inhibition, % of IFN control: 0%
